Source: patent US20220125898A1, “PAR2 MODULATION AND METHODS THEREOF” (JANSSEN BIOTECH, INC., priority 2019, published 2022)
Numbering of substitutions follows the chain as printed.

Key:
[1] = tested on: HEK293 cells with par1 and par2 knocked-out; test: FLIPR characterization of par1 and par2 knock-out HEK293 cells; format: cell-based, human
Text: A PAR1, PAR2 knock-out HEK293 cell line was created by Applied StemCells (Milpitas, Calif.) using a CRISPR/Cas9 approach. Briefly, the coding region (nucleotide 374-643) of PAR1, which encodes the protein region transmembrane region 2 (TM2) to transmembrane region 3 (TM3) of PAR1, was deleted. Similarly, the coding region (281-627) of PAR2, which encodes the protein region TM2 to TM3 of PAR2, was deleted. Single cell clones were isolated. PCR analysis of the genomic DNA followed by DNA sequencing was used to confirm the deletion of the DNA fragments.
FLIPR-Tetra (Molecular Device, San Jose, Calif.) was used to monitor intracellular Ca^2+ mobilization in HEK293 cells, HEK293 cells with PAR1 and PAR2 knocked-out, and cells transiently transfected with various PAR2 expression constructs. Cells were grown in 96-well polyD-lysine coated black FLIPR plates (Corning) in DMEM supplemented with 10% FCS, 1 mM pyruvate, 20 mM HEPES, at 37° C. with 5% CO2. For transient transfection, cells were grown in 96-well polyD-lysine coated black FLIPR plates and transfected using FuGENE HD (Promega, Madison, Wis.) as the transfection reagent according to the manufacturer's instructions. […] Intracellular Ca^2+ mobilization stimulated by various concentrations of ligands (trypsin, or peptide ligand) was monitored by FLIPR-Tetra as described (Liu et al., Mol. Pharmacol. 88:911-25 (2015)). […]

[2] = biological target: T1, recombinantly expressed PAR2 (Homo sapiens, UniProt P55085); test: FLIPR intracellular Ca2+ mobilization, recombinant wild type PAR2 transiently expressed in par1/par2 knock-out HEK293; format: cell-based
T1 construct: was used to amplify the full length PAR2 cDNA coding region; expressed in transfected cells; host or cells: HEK293 cells with par1 and par2 knocked out, transient, pcDNA3.1
T1 sequence (P55085 26-397): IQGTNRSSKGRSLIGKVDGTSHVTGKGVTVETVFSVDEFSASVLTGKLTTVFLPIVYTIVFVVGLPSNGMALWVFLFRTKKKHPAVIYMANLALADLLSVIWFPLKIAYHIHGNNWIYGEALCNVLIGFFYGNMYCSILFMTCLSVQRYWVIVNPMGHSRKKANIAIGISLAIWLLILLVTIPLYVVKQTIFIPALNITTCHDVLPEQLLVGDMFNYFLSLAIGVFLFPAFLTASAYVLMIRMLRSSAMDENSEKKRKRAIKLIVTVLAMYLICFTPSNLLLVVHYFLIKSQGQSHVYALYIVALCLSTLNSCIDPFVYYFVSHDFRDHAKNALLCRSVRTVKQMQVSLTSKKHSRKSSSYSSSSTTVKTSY
Experimental: (§1) FLIPR-Tetra (Molecular Device, San Jose, Calif.) was used to monitor intracellular Ca^2+ mobilization in HEK293 cells, HEK293 cells with PAR1 and PAR2 knocked-out, and cells transiently transfected with various PAR2 expression constructs. Cells were grown in 96-well polyD-lysine coated black FLIPR plates (Corning) in DMEM supplemented with 10% FCS, 1 mM pyruvate, 20 mM HEPES, at 37° C. with 5% CO2. For transient transfection, cells were grown in 96-well polyD-lysine coated black FLIPR plates and transfected using FuGENE HD (Promega, Madison, Wis.) as the transfection reagent according to the manufacturer's instructions. For samples treated with protease inhibitors, protease cocktail was added to cell culture one day after transfection and incubated overnight. Two days after transfection, cell culture media were removed, and cells were washed using HMS buffer plus 20 mM HEPES. Ca^2+ dye (Flura 3) diluted in HMS buffer plus 20 mM HEPES was used to incubate cells at RT for 40 minutes to allow Ca^2+ to enter cells. Intracellular Ca^2+ mobilization stimulated by various concentrations of ligands (trypsin, or peptide ligand) was monitored by FLIPR-Tetra as described (Liu et al., Mol. Pharmacol. 88:911-25 (2015)). The untransfected cells were used as negative controls.

[3] = biological target: T2, endogenously expressed PAR2 in HEK293 cells (Homo sapiens, UniProt P55085); test: FLIPR intracellular Ca2+ mobilization, wild type HEK293 cells; format: cell-based; settings: endogenous PAR2, HEK293 cells
T2 construct: the endogenously expressed PAR2 in HEK293 cells; endogenous in cells; host or cells: wild type HEK293 cells
T2 sequence (P55085 26-397): T1 sequence (P55085 26-397)
Experimental: as §1

PAR2ΔSP = biological target: T3, PAR2ΔSP (Homo sapiens, UniProt P55085); test: FLIPR intracellular Ca2+ mobilization, PAR2 without signal peptide in par1/par2 knock-out HEK293; format: cell-based; settings: PAR2 without its signal peptide
T3 construct: expressed in transfected cells; host or cells: HEK293 cells with par1 and par2 knocked out, transient, pcDNA3.1
T3 sequence (P55085 with tags, fused parts or gaps): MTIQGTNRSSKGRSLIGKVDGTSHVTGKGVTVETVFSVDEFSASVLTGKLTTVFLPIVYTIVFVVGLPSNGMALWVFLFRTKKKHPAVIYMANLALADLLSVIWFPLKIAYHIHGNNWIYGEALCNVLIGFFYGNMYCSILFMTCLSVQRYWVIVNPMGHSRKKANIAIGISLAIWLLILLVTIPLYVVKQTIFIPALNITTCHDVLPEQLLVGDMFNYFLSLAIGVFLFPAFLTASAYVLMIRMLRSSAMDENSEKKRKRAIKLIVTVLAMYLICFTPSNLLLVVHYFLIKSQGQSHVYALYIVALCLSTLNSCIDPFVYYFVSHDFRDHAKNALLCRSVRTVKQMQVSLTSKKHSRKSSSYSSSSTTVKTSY
Experimental: as §1, with “controls. […]” for “controls.”

PAR2ΔSPΔL = biological target: T4, PAR2ΔSPΔL (Homo sapiens, UniProt P55085); test: FLIPR intracellular Ca2+ mobilization, PAR2 without signal peptide and tethered ligand; format: cell-based
T4 construct: expressed in transfected cells; host or cells: HEK293 cells with par1 and par2 knocked out, transient
T4 sequence (P55085 with tags, fused parts or gaps): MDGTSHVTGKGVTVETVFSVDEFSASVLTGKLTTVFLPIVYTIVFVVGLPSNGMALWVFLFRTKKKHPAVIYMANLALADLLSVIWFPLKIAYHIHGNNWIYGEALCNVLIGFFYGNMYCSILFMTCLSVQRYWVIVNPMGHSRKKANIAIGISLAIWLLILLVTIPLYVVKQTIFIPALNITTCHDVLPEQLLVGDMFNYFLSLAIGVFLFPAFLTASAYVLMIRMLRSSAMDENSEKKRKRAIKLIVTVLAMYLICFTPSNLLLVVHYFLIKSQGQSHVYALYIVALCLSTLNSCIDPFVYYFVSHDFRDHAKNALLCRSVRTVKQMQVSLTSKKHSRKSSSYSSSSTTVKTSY
Experimental: as §1, with “Intracellular Ca^2+ mobilization stimulated by various concentrations of ligands (trypsin, or peptide ligand) was monitored by FLIPR-Tetra as described (Liu et al., Mol. Pharmacol. 88:911-25 (2015)).” left out

PAR2(R36A) = biological target: T5, PAR2(R36A) (Homo sapiens, UniProt P55085, R36A); test: FLIPR intracellular Ca2+ mobilization, full length PAR2 with Arg36Ala mutation; format: cell-based
T5 construct: expressed in transfected cells; host or cells: HEK293 cells with par1 and par2 knocked out, transient
T5 sequence (P55085 26-397 R36A): T1 sequence (P55085 26-397) with R11A
Experimental: as §1, with “Intracellular Ca^2+ mobilization stimulated by various concentrations of ligands (trypsin, or peptide ligand) was monitored by FLIPR-Tetra as described (Liu et al., Mol. Pharmacol. 88:911-25 (2015)).” left out

PAR2ΔSP(R36A) = biological target: T6, PAR2ΔSP(R36A) (Homo sapiens, UniProt P55085, R36A); test: FLIPR intracellular Ca2+ mobilization, signal peptide-less PAR2 with Arg36Ala mutation; format: cell-based
T6 construct: expressed in transfected cells; host or cells: HEK293 cells with par1 and par2 knocked out, transient
T6 sequence (P55085 with tags, fused parts or gaps R36A): T3 sequence (P55085 with tags, fused parts or gaps) with R13A
Experimental: as §1, with “Intracellular Ca^2+ mobilization stimulated by various concentrations of ligands (trypsin, or peptide ligand) was monitored by FLIPR-Tetra as described (Liu et al., Mol. Pharmacol. 88:911-25 (2015)).” left out

[4] = biological target: Human PAR2 wild type, recombinantly expressed in HEK293 cells with par1 and par2 knocked-out (human) (UniProt P55085); test: cell-based or functional assay
[5] = biological target: PAR2 endogenously expressed in HEK293 cells (human) (UniProt P55085); test: cell-based or functional assay
[6] = biological target: PAR2 with the signal peptide deleted (PAR2ΔSP) (human) (UniProt P55085); test: cell-based or functional assay
[7] = biological target: T7, Human PAR2 wild type, recombinantly expressed in HEK293 cells with par1 and par2 knocked-out (human, UniProt P55085 37-397); test: cell-based or functional assay
T7 sequence: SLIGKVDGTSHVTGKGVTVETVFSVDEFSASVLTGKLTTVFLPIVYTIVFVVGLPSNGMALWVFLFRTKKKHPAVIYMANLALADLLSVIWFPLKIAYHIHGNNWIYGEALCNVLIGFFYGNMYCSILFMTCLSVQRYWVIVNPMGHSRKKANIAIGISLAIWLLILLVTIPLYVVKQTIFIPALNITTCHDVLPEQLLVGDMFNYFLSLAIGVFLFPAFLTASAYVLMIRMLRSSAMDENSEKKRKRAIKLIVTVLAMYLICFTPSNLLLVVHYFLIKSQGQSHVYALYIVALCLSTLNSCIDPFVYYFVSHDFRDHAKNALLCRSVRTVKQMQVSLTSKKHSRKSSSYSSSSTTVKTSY

[8] = biological target: T8, PAR2 endogenously expressed in HEK293 cells (human, UniProt P55085 37-397); test: cell-based or functional assay
T8 sequence (looked up): T7 sequence

[9] = biological target: T9, PAR2 with the signal peptide deleted (PAR2ΔSP) (human, UniProt P55085 37-397); test: cell-based or functional assay
T9 sequence: T7 sequence

thrombin
response of knock-out cells to ligand [1]: lack of response

trypsin
EC50 [2]: 1.5 nM
EC50 [3]: 10 nM
EC50 (PAR2ΔSP): 50 nM
receptor activation in FLIPR assay (PAR2ΔSPΔL): not activated
receptor response to ligand stimulation in FLIPR assay (PAR2(R36A)): very poorly
receptor response to ligand stimulation in FLIPR assay (PAR2ΔSP(R36A)): blocked
response of knock-out cells to ligand [1]: lack of response

Trypsin (sequencing grade) (enzyme)
EC50, FLIPR intracellular Ca2+ mobilization [4]: 1.5 nM
EC50, FLIPR intracellular Ca2+ mobilization [5]: 10 nM
EC50, FLIPR intracellular Ca2+ mobilization [6]: 50 nM

SLIGKV [PAR2 agonist peptide ligand, SLIGKV]
EC50, FLIPR intracellular Ca2+ mobilization [7]: 50 nM
EC50, FLIPR intracellular Ca2+ mobilization [8]: 1500 nM
EC50, FLIPR intracellular Ca2+ mobilization [9]: 5800 nM
EC50, FLIPR intracellular Ca2+ mobilization, cells treated with protease inhibitor cocktail [9]: 700 nM
